Experimental data from US7592374B2, “Insecticidal nitromethylene compounds” (Crompton Corporation, priority 2005, dated 2009).

Assays:
Assay type in all cases: in vivo
Tetranychus urticae Koch [1] = experiment: Mite ovicide test (MIOV); conditions: 216 h, 1000 ppm spray to run off on cowpea leaves, unhatched eggs examined nine days following treatment, read-out: Percent Control MIOV (mite ovicide)
Protocol: In the following examples, a stock solution for the compounds of the present invention was prepared at 3000 ppm by dissolving 0.24 gram of each compound to be tested in eight mL of acetone and adding 72 mL of distilled water plus three drops of ethoxylated sorbitan monolaurate, a wetting agent. […] For each example that follows, the stock solution was used and the specificized dilutions made. All the tests discussed below, which involved treatment with compounds of this invention, were always repeated with controls, in which the active compound was not provided, to permit a comparison upon which the percent control was calculated. One day before treatment of cowpea primary leaves with the test solutions, a “Figure 8” configuration of tree tanglefoot was applied to each of two cowpea primary leaves, one from each of two plants in a pot. The circle nearer the stem was designated for the mite ovicide test and the circle further from the stem was designated for the mite adulticide test. Groups of adult mites (Tetranychus urticae Koch) were transferred into ovicide circles one day before treatment and the females were allowed to deposit eggs until one hour before treatment, at which point all the adults were removed. The plants were then sprayed to run off with a 1000 ppm of solution diluted from the 3000 ppm stock solution. Nine days following treatment the ovicide rings were examined for unhatched eggs and living immature mites. The percent control was estimated based on the number of unhatched eggs.

Helicoverpa virescens = experiment: Tobacco budworm test (TB); conditions: Heliothis virescens, 336 h; 0.2 mL of 3000 ppm stock solution on diet cell surface; second instar larva; after 14 days; corrected by Abbott's formula; read-out: Percent Control TB (tobacco budworm)
Protocol: In the following examples, a stock solution for the compounds of the present invention was prepared at 3000 ppm by dissolving 0.24 gram of each compound to be tested in eight mL of acetone and adding 72 mL of distilled water plus three drops of ethoxylated sorbitan monolaurate, a wetting agent. […] For each example that follows, the stock solution was used and the specificized dilutions made. All the tests discussed below, which involved treatment with compounds of this invention, were always repeated with controls, in which the active compound was not provided, to permit a comparison upon which the percent control was calculated.
For each compound tested, 0.2 mL of the stock solution prepared asdescribed above, was pipetted onto the surface of each of five diet cells, allowed to spread over the surfaces and air dried for two hours. Then a second instar Helicoverpa virescens larva was introduced into each cell. After 14 days, the number of living larvae was determined for each treatment and percent control, corrected by Abbott's formula, was calculated.

Tetranychus urticae Koch [2] = experiment: Mite adulticide test (MI); conditions: 120 h, 1000 ppm spray to run off on cowpea leaves, adult mites placed 1 day after treatment, live mites counted five days later, read-out: Percent Control MI (mite adulticide)
Protocol: In the following examples, a stock solution for the compounds of the present invention was prepared at 3000 ppm by dissolving 0.24 gram of each compound to be tested in eight mL of acetone and adding 72 mL of distilled water plus three drops of ethoxylated sorbitan monolaurate, a wetting agent. […] For each example that follows, the stock solution was used and the specificized dilutions made. All the tests discussed below, which involved treatment with compounds of this invention, were always repeated with controls, in which the active compound was not provided, to permit a comparison upon which the percent control was calculated. One day before treatment of cowpea primary leaves with the test solutions, a “Figure 8” configuration of tree tanglefoot was applied to each of two cowpea primary leaves, one from each of two plants in a pot. The circle nearer the stem was designated for the mite ovicide test and the circle further from the stem was designated for the mite adulticide test. Groups of adult mites (Tetranychus urticae Koch) were transferred into ovicide circles one day before treatment and the females were allowed to deposit eggs until one hour before treatment, at which point all the adults were removed. The plants were then sprayed to run off with a 1000 ppm of solution diluted from the 3000 ppm stock solution. One day following treatment of the plants with the test solution, groups of approximately 25 adult mites were transferred into the adulticide rings. Five days later, these rings were examined for live mites remaining on the leaves. The percent control was estimated based on the number of mites surviving on the control plants.

SMILES	pest or weed control at 1000 ppm (Tetranychus urticae Koch [1]) [%]	pest or weed control at 3000 µg/mL (Helicoverpa virescens) [%]	pest or weed control at 1000 ppm (Tetranychus urticae Koch [2]) [%]
CC/C(=N\Nc1cc(-c2ccccc2)ccc1OC)[N+](=O)[O-] [Compound 1, Propanal, 1-nitro, (4-methoxy-[1,1′-biphenyl]-3-yl)hydrazone]	100	64	100
COc1ccc(-c2ccccc2)cc1N/N=C/[N+](=O)[O-] [Compound 2]	0	100	0
CCC/C(=N\Nc1cc(-c2ccccc2)ccc1OC)[N+](=O)[O-] [Compound 3]	100	0	100
COc1ccc(-c2ccccc2)cc1N/N=C(/C(C)C)[N+](=O)[O-] [Compound 4]	0	0	100
CC/C(=N\Nc1cccc(-c2ccccc2)c1)[N+](=O)[O-] [Compound 5]	0	0	100
CCCCCOc1ccc(-c2ccccc2)cc1N/N=C(/CC)[N+](=O)[O-] [Compound 6]	30	0	100
CC/C(=N/Nc1cc(-c2ccccc2)ccc1C)[N+](=O)[O-] [Compound 7]	70	0	100
CC(C)C/C(=N\Nc1cccc(-c2ccccc2)c1)[N+](=O)[O-] [Compound 8]	0	40	100
CC/C(=N/Nc1cc(OC)ccc1-c1ccccc1)[N+](=O)[O-] [Compound 9]	70	14	70
C/C(=N\Nc1ccc2c(c1)Cc1ccccc1-2)[N+](=O)[O-] [Compound 10]	0	0	0
CC/C(=N\Nc1ccc2c(c1)c1ccccc1n2CC)[N+](=O)[O-] [Compound 11]	30	57	30
CC/C(=N/Nc1ccc(Cl)nc1)[N+](=O)[O-] [Compound 12]	70	100	100
